From US20210113563A1, “4-(4-CYANO-2-THIOARYL)DIHYDROPYRIMIDINONES FOR TREATING CHRONIC WOUNDS” (pH Pharma Co., Ltd., priority 2015, published 2021)
Entries after “also recorded” stand apart in the source; their conditions may differ.

How the values were obtained:
HaCaT cells = assay: HaCaT modified scratch assay (Oris Cell Migration Assay) with human neutrophil elastase; format: cell-based; settings: 7.5 μg/mL hNE
Procedure: The modified scratch-wound assay is a simple, reproducible assay commonly used to measure basic cell migration parameters such as speed, persistence, and polarity. Cells are grown to confluence and a thin “wound” is introduced by scratching with a pipette tip. In the modified version, a plastic plug is placed into the tissue well while the cells adhere and grow to confluence. When the plug is pulled, a circular “wound” emerges. Cells at the wound edge polarise and migrate into the wound space. […] At the given time points, the size of the free area is measured.
Method: Oris Cell Migration Assay (collagen I coated) with HaCaT cells. Establishing a dose response curve for test compounds with and without addition of 7.5 μg/mL human neutrophil elastase (hNE).
For harvesting the cells, the medium was first extracted from the cell culture flask, then washed with PBS and 10-20 ml aspirated again. 2.5 ml (75 cm^2 flask bottom area) or 5 ml (162 cm^2) TrypLE Express were added, as well as the same amount of PBS followed by incubating the cells for 10 minutes (37° C.). The cells were transferred into a tube, centrifuged (250×g, 10 min, RT=room temperature) and resuspended in medium.
The following cell concentration was used: 7×10^5 cells/ml=7×10^4 cells/well/100 μl.
In this time, the cells adhered and grew to confluence. The compounds were then added to achieve the below indicated concentrations. The plugs were then removed.
Once all components were pipetted to the cells, one photo per well was taken including the “wound” (0 h). A Zeiss AxioObserver (5× lens, bright field, 5.5 V light exposure 2.2 ms) and the AxioVision software was used. […] 16 h later pictures were taken again.
The relative healing was calculated, i.e. the percentage of closed wound area compared to baseline at 0 h.
Wound healing %=100−(‘wound surface after x hours’*100/‘wound surface after 0 hours’)
From the calculated relative wound healing a graphic in GrapPad prism was created, and EC50 values were determined.
For evaluation of pictures the software ImageJ was used. For this, the ZVI files were exported within the AxioVision software as jpg. This jpg files were then opened by ImageJ. Using the Tools panel (Mode: 4-connected/Tolerance=5-20) the to be measured surface area was marked.

[1] = tested on: wounds of Tight Skin mice (TSK); assay: Reepithelialization and visual healing of full thickness skin excision wounds in Tight Skin mice (TSK); format: in vivo; settings: TSK mouse; for Wound closure (reepithelialization) in % of initial epidermal gap: d 12, CK16 staining
Excerpt: OBJECTIVE: To evaluate wound closure/reepithelialization promoting effects of the Neutrophil Elastase Inhibitor Example 3 in a fibrosis-related model of delayed wound healing (Tight Skin Mouse, TSK). METHODS: Animals: mice, male+female, strain: B6.Cg-FBN1<Tsk>−/− (wt) and +/−(het), age: 5 weeks upon delivery, breeder: Bayer. Food (ssniff R/M-H) and water was provided ad libitum. Experimental procedure: Mice were randomized at day 0. At day 0, 3 full thickness excision wounds were induced. For that, animals were anesthetized (Rompun/Ketavet/NaCl 0.9% [1+3+16]) in […]. The lower back was shaved, then moistened with tap water. Pilca depilation cream was applied and left for 3-5 minutes to act, then wiped off. To prevent the animals from cooling down during the procedure, they were placed on warming mats. Skin was excised using 6 mm diameter round scalpels. After wake up mice were distributed to individual cages. Treatment: Day 0 to 11 twice daily per os. Example 3 was dissolved in PEG400 as a vehicle. Administration was twice daily (bid). Skin samples were harvested into formalin (3.7% in PBS) at day 12 after scarifying with isoflurane/O2/N2O anesthesia followed by dislocation of the cervical spine. After soaking in formalin (24-72 h), the samples were transferred to paraffin and then cut. Staining of cytokeratin 16 was performed using rabbit polyclonal anti-Keratin 16 (CK16, KRT16, ABIN265495), 1 mg/ml anti-CK16 antibody by IHC-Peroxidase (in a 1:100 dilution) EnVision+ System-HRP (DAB), for Rabbit Primary Antibodies (Dako #K4011).
Effects were most prominent on d7 and d9. All dosages were similarly effective, i.e. a clear dose response ratio remained to be established. […] Based on the size of the induced wounds, 6000 μm was set as 100%. The epidermal gap, i.e. the distance between the epidermal edges was measured by microscopic histometry. The width of the gap was subtracted from the initial wound. The delta represented the reepithelialized part of the wound and was expressed as reepithelialization in % of the initial wound diameter, i.e. 100% equaled complete reepithelialization or full wound closure.

[2] = biological target: T1, human neutrophil elastase (HNE) (Homo sapiens, UniProt P08246); settings: read-out: Inhibition of human neutrophil elastase (HNE) IC50; cited from earlier work
T1 sequence (P08246 30-267): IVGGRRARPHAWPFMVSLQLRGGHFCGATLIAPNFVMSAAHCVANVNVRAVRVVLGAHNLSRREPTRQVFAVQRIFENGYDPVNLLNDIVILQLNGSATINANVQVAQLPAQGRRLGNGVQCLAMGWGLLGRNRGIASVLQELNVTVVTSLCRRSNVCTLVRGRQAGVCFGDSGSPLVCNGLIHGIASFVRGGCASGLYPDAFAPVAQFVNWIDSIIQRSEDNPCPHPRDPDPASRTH

SMILES	Correction of the reepithelialization-impairing effect of NE (in words) (HaCaT cells)	IC50 (HaCaT cells; Homo sapiens, 16 h) [nM]	Bottom (HaCaT cells; curve fit, 16 h)	Span (HaCaT cells; curve fit, 16 h)	Top (HaCaT cells; curve fit, 16 h)	Wound closure (reepithelialization) in % of initial epidermal gap ([1]; 2.5 mg/kg BW twice daily p.o.) [%]	Wound closure (reepithelialization) in % of initial epidermal gap ([1]; 5 mg/kg BW twice daily p.o.) [%]	Wound closure (reepithelialization) in % of initial epidermal gap ([1]; 10 mg/kg BW twice daily p.o.) [%]	Wound closure (reepithelialization) in % of initial epidermal gap ([1]; 20 mg/kg BW twice daily p.o.) [%]	Visual wound healing, wound area reduction over time (in words) ([1]; 2.5-20 mg/kg bid p.o., FIG. 1)	Reepithelialization vs. vehicle controls, histological (in words) ([1]; d 12)	IC50 [2] [nM]
CC1=C(C#N)[C@@H](c2ccc(C#N)cc2S(C)(=O)=O)N(S(C)(=O)=O)C(=O)N1c1cccc(C(F)(F)F)c1 [Example 3, (4 S)-4-[4-Cyano-2-(methylsulfonyl)phenyl]-6-methyl-3-(methylsulfonyl)-2-oxo-1-[3-(trifluoromethyl)phenyl]-1,2,3,4-tetrahydropyrimidine-5-carbonitrile]	almost entirely, potently and concentration-dependently be corrected; also recorded: potently and effectively able to block detrimental effects of NE	57.4	90.41	−47.65	42.75	95.8	93.9	99.5	100	significant visual wound healing improving effects; also recorded: induced accelerated wound healing	reepithelialization was significantly further advanced	< 0.3
CC1=C(C#N)[C@@H](c2ccc(C#N)cc2S(C)(=O)=O)N(S(=O)(=O)C2CC2)C(=O)N1c1cccc(C(F)(F)F)c1 [Example 4, (4 S)-4-[4-Cyano-2-(methylsulfonyl)phenyl]-6-methyl-3-(cyclopropylsulfonyl)-2-oxo-1-[3-(trifluoromethyl)phenyl]-1,2,3,4-tetrahydropyrimidine-5-carbonitrile]	–	–	–	–	–	–	–	–	–	–	–	< 0.3
CCS(=O)(=O)c1cc(C#N)ccc1[C@@H]1C(C#N)=C(C)N(c2cccc(C(F)(F)F)c2)C(=O)N1C [Example 6, (4 S)-4-[4-Cyano-2-(ethylsulfonyl)phenyl]-3,6-dimethyl-2-oxo-1-[3-(trifluoromethyl)phenyl]-1,2,3,4-tetrahydropyrimidine-5-carbonitrile]	–	–	–	–	–	–	–	–	–	–	–	< 0.3
